Experimental data from patent publication US20110124006A1, “METHOD FOR SCREENING OF THERAPEUTIC AGENT FOR CANCER” (Hismitsu Pharmaceutical Co., Inc., priority 2008, published 2011).

Assays:
[1] = tested on: MYCN expression; assay: Immunoblot of EGF-induced MYCN expression in SK-N-BE cells with pathway inhibitors; format: cell-based; conditions: six hours, 10 ng/ml EGF, inhibitor concentrations shown in FIG. 27
Description: SK-N-BE cells were cultured for six hours in the presence of 10 ng/ml EGF and in the presence of an EGFR inhibitor AG1478, a Ras inhibitor FTI277, an ERK1/2 inhibitor U0126, a PI3Kinase inhibitor LY294002, a INK inhibitor SP600125 or a p38MAPK inhibitor SB203580 in each concentration shown in FIG. 27. Next, respective cells were collected, and the expression of MYCN was analyzed by an immunoblot method using an anti-MYCN antibody and an anti-actin antibody. FIG. 27 is a photograph showing a result of an immunoblot.

[2] = tested on: SK-N-BE cells; assay: MTT assay, proliferation of SK-N-BE cells in the presence of EGF; format: cell-based; conditions: 10 ng/ml EGF plus 5 μM inhibitor, vs EGF-only control, T-test p<0.01
Description: SK-N-BE cells were cultured in the presence of 10 ng/ml EGF (control, which corresponds to “mock” in FIG. 26), in the presence of 10 ng/ml EGF and 5 μM of EGFR inhibitor AG1478, as well as in the presence of 10 ng/ml EGF and 5 μM of Ras inhibitor FTI277, and the cell proliferation was quantified by the MTT assay over time. FIG. 26 is a graph showing the proliferation of cells.

[3] = tested on: SK-N-AS cell line continuously expressing NLRR1; assay: Flow cytometry of sub-G1 cells (apoptosis) under serum-free conditions; format: cell-based; conditions: SK-N-AS line continuously expressing NLRR1, serum-free 36 hours, PI staining
Description: It is known that in the SK-N-AS neuroblastoma cell line, cell death is induced when serum is removed, and that the number of sub-G1 cells is increased from the flow cytometry analysis. SK-N-AS cells into which an empty vector plasmid was introduced (corresponding to “mock” on the left in FIG. 17), a cell line continuously expressing NLRR1 obtained by introducing a plasmid encoding NLRR1 into SK-N-AS cells (corresponding to “+NLRR1” in the middle of FIG. 17), and cells obtained by introducing siRNA against NLRR1 into this cell line continuously expressing NLRR1 (corresponding to “+siRNA+NLRR1” on the right of FIG. 17) were PI stained before and after the cells were cultured under the serum-free conditions for 36 hours, and analyzed by flow cytometry. The rate of the sub-G1 cells was evaluated as a rate of apoptosis. […] FIG. 18 is a graph showing the proportion of the number of sub-G1 cells to the total number of cells before and after culturing under the serum free conditions of respective cells based on the results of FIG. 17, in which the unit of the ordinate axis is %.

[4] = tested on: SHEP21N cells; assay: MTT assay, proliferation of SHEP21N cells forced to express MYCN; format: cell-based; conditions: absence of tetracycline (expression of MYCN increased)
Description: To SHEP21N cells that were forced to express MYCN in the absence of tetracycline, siRNA against NLRR1 was introduced, and the cell proliferation was quantified by the MTT assay over time. FIG. 15 is a graph showing the proliferation of cells. In the absence of tetracycline (expression of MYCN was increased), the proliferation of cells was promoted as compared with the case in the presence of tetracycline (expression of MYCN was suppressed). When Silencer (registered trademark) Negative Control #1 siRNA was introduced in the absence of tetracycline (expression of MYCN was increased) as a control, the proliferation rate of cells was not changed.

[5] = tested on: MYCN expression; assay: Immunoblot of EGF-induced MYCN expression in SK-N-BE cells after siRNA introduction; format: cell-based; conditions: 10 hours, 10 ng/ml EGF
Description: SK-N-BE cells, SK-N-BE cells into which siRNA against NLRR1 was introduced, and SK-N-BE cells into which Silencer (registered trademark) Negative Control #1 siRNA was introduced were cultured for 10 hours in the presence of 10 ng/ml EGF, and the cells were collected. Next, these cells were subjected to an immunoblot method using an anti-MYCN antibody, an anti-NLRR1 rabbit polyclonal antibody and an anti-actin antibody, and expression of MYCN and NLRR1 in the protein level was detected. FIG. 16 is a photograph showing a result of immunoblot. The result of the cells into which control siRNA was introduced corresponds to “mock” in FIG. 16.

[6] = tested on: SK-N-BE cells; assay: MTT assay, proliferation of SK-N-BE cells after siRNA introduction; format: cell-based; conditions: vs negative control siRNA, day 4 and day 5 p<0.01
Description: (§1) To SK-N-BE cells derived from neuroblastoma, siRNA against NLRR1 was introduced so as to suppress the expression of NLRR1. As the siRNA, RNA fragment of the base sequences shown SEQ ID NOs: 3 and 4 were annealed and used.
(§2) After siRNA was introduced, the cells were cultured, and the cell proliferation was quantified by the MTT assay over time. As a control, cells into which Silencer (registered trademark) Negative Control #1 siRNA (Ambion) was introduced were used. FIG. 11 is a graph showing the proliferation of cells. […] FIG. 12 is a photograph of an immunoblot in which the expression of NLRR1 in the cells into which siRNA against NLRR1 was introduced and the control cells were detected by using an anti-NLRR1 rabbit polyclonal antibody. The anti-NLRR1 rabbit polyclonal antibody was prepared by immunizing a rabbit with a synthetic peptide corresponding to 693-712 residues of an amino acid sequence of NLRR1 (SEQ ID NO: 2) as an antigen. The result when an anti-actin antibody was used as the loading control is also shown.

[7] = tested on: NLRR1; assay: Immunoblot of NLRR1 expression after siRNA introduction; format: cell-based; conditions: SK-N-BE cells, anti-NLRR1 rabbit polyclonal antibody
Description: as §1, §2

[8] = tested on: SK-N-BE cells, NLF cells, SH-SY5Y cells, SMS-SAN cells; assay: MTT assay, EGF-induced proliferation of neuroblastoma-derived cells; format: cell-based; conditions: SK-N-BE cells with siRNA, 10 ng/ml EGF
Description: SK-N-BE cells, NLF cells, SH-SY5Y cells, SMS-SAN cells, which are cell lines derived from neuroblastoma, and SK-N-BE cells into which siRNA against NLRR1 was introduced were cultured in the presence and absence of 10 ng/ml EGF, and the cell proliferation was quantified by the MTT assay over time. FIG. 28 is a graph showing the cell proliferation, showing the change fold ratio of the proliferation of cells in the presence of EGF to the proliferation of cells in the absence of EGF.

[9] = tested on: MYCN protein expression; assay: Immunoblot of MYCN protein induced by NLRR1 expression in SK-N-BE cells; format: cell-based; conditions: NLRR1 plasmid 1000 ng/ml, 12 hours, 1 μM AG1478 or 2 μM U0126
Description: An expression plasmid of NLRR1 tagged with a myc tag was introduced into SK-N-BE cells at the concentration of 1000 ng/ml. The cells were cultured for 12 hours in the presence of 1 μM of EGFR inhibitor AG1478 or 2 μM of ERK1/2 inhibitor U0126, and then the cells were collected and subjected to an immunoblot method using an anti-myc antibody, an anti-MYCN antibody and an anti-actin antibody. FIG. 34 is a photograph showing a result of an immunoblot.

[10] = tested on: SK-N-BE cells forced to express NLRR1; conditions: SK-N-BE cells forced to express NLRR1, presence vs absence of U0126, over time
Description: SK-N-BE cells that were forced to express NLRR1 were cultured in the presence and absence of ERK1/2 (ERK1 and ERK2) inhibitor, U0126. Furthermore, as a control, SK-N-BE cells into which a plasmid encoding NLRR1 was not introduced were cultured in the absence of U0126. The proliferation of these cells was quantified by an MTT assay over time. FIG. 23 is a graph showing a proliferation of cells. In the drawing, A denotes the proliferation of SK-N-BE cells forced to express NLRR1; B denotes the proliferation of SK-N-BE cells forced to express NLRR1 in the presence of U0126; and C denotes the proliferation of control cells.

[11] = tested on: phosphorylation of EGFR and ERK; assay: Western blotting of EGFR and ERK phosphorylation in MCF-7 cells forced to express NLRR1; format: cell-based; conditions: MCF-7 cells forced to express NLRR1, 10 mM cyclodextrin 30 minutes 37° C., then EGF three minutes
Description: The effect of NLRR1 on EGF signal transduction in cells treated with cyclodextrin (methyl-β-cyclodextrin, mβCD) that inhibits lipid raft was examined. FIG. 39 is a photograph showing a result of an immunoblot. […] The cells were washed with the medium, and cultured for three minutes in a medium containing EGF with different concentrations. Then, the phosphorylation of EGFR and ERK was analyzed by Western blotting. With the expression of NLRR1, the enhancement of phosphorylation of EGFR and ERK by EGF was detected. […] From the result, it has been clarified that the enhancement of an EGF signal by NLRR1 needs the structure of lipid raft. Thus, it is thought that treatment of cancer using the combination of an antibody inhibiting NLRR1 and an inhibitor of lipid raft is effective.

Compound	expression increase of MYCN by the induction of EGF (immunoblot) [1]	proliferation of cells (MTT assay) [2]	expression induction of MYCN protein by the expression of NLRR1 (immunoblot) [9]	also measured
C[S+]([O-])c1ccc(-c2nc(-c3ccncc3)c(-c3ccc(F)cc3)[nH]2)cc1 (stereo not shown) [SB203580]	expression increase of MYCN by the induction of EGF was not inhibited			
COC(=O)[C@H](CCSC)NC(=O)c1ccc(NC[C@@H](N)CS)cc1-c1ccccc1 [FTI277]	expression increase of MYCN by the induction of EGF was inhibited	the proliferation of cells is suppressed		
siRNA against NLRR1: annealed RNA fragments of SEQ ID NOs: 3 and 4, suppresses the expression of NLRR1 (chain 1 UCUUGGUUGAGCUGUGUAGUU; chain 2 AACUACACAGCUCAACCAAGA; RNA, backbone not given here; listed as Homo sapiens)				apoptosis (proportion of sub-G1 cells) [3]: the increase in the apoptosis was observed; proliferation of cells due to increased MYCN expression (MTT assay) [4]: the proliferation of cells due to the increase in the MYCN expression did not occur; induction of the expression of MYCN by EGF treatment (immunoblot) [5]: the induction of the expression of MYCN by EGF treatment was suppressed; proliferation of cells (MTT assay) [6]: the proliferation of cells is suppressed; expression of NLRR1 (immunoblot) [7]: the expression of NLRR1 was suppressed; EGF-induced cell proliferation (MTT assay, fold ratio with vs without EGF) [8]: EGF-induced cell proliferation was remarkably suppressed
COc1cc2ncnc(Nc3cccc(Cl)c3)c2cc1OC [AG1478]	expression increase of MYCN by the induction of EGF was inhibited	the proliferation of cells is suppressed	expression induction of MYCN protein by the expression of NLRR1 is suppressed	
N#CC(=C(/N)Sc1ccccc1N)/C(C#N)=C(\N)Sc1ccccc1N [U0126]	expression increase of MYCN by the induction of EGF was inhibited		expression induction of MYCN protein by the expression of NLRR1 is suppressed	proliferation of cells (MTT assay) [10]: the cell proliferation was suppressed
methyl-β-cyclodextrin [mβCD]				enhancement of phosphorylation of EGFR and ERK by NLRR1 [11]: the enhancement of phosphorylation of EGFR and ERK by NLRR1 was not observed
